Assay results taken from ChEMBL document CHEMBL3885861, “Open TG-GATES”.

Organism: Rattus norvegicus
Test: Open TG-GATES - Regimen: Single
Assay type: toxicity, organism-based, Sprague-Dawley
Set-up: regimen Single, gender Male, age 6 weeks
Details: in vivo, po, route gavage; for TP / gamma-GTP / A/G / ALP / ALT / AST / BUN / CRE / Ca / Cl / DBIL / GLC / IP / K / LDH / Na / PL / RALB / TBIL / TC / TG: tissue Plasma; for APTT / Bas / Eos / Fbg / Hb / Ht / Lym / MCH / MCHC / MCV / Mono / Neu / PT / Plat / RBC / Ret / WBC: tissue Blood; for KIDNEY_L / KIDNEY_R / KIDNEY_TOTAL: tissue Kidney; for LIVER: tissue Liver
[1] = 2 mg/kg, 3 h, dose level Middle
[2] = 2 mg/kg, 6 h, dose level Middle
[3] = 2 mg/kg, 9 h, dose level Middle

COc1ccc2c(c1)c(CC(=O)O)c(C)n2C(=O)c1ccc(Cl)cc1 [INDOMETHACIN]
TP (1 mg/kg, 9 h, dose level Low): 5.3 g/dL | gamma-GTP (1 mg/kg, 9 h, dose level Low): 1.4 IU/L | TERMINAL_BW (1 mg/kg, 24 h, dose level Low): 215.2 g | APTT (1 mg/kg, 24 h, dose level Low): 16.8 s | Bas (1 mg/kg, 24 h, dose level Low): 0% | Eos (1 mg/kg, 24 h, dose level Low): 0.8% | Fbg (1 mg/kg, 24 h, dose level Low): 198.2 mg/dL | Hb (1 mg/kg, 24 h, dose level Low): 13.5 g/dL | Ht (1 mg/kg, 24 h, dose level Low): 40.7% | Lym (1 mg/kg, 24 h, dose level Low): 79% | MCH (1 mg/kg, 24 h, dose level Low): 21.8 pg | MCHC (1 mg/kg, 24 h, dose level Low): 33.2% | MCV (1 mg/kg, 24 h, dose level Low): 65.6 fL | Mono (1 mg/kg, 24 h, dose level Low): 8.8% | Neu (1 mg/kg, 24 h, dose level Low): 11.4% | PT (1 mg/kg, 24 h, dose level Low): 12.3 s | Plat (1 mg/kg, 24 h, dose level Low): 112.3 x10_4/uL | RBC (1 mg/kg, 24 h, dose level Low): 620.8 x10_4/ul | Ret (1 mg/kg, 24 h, dose level Low): 9% | WBC (1 mg/kg, 24 h, dose level Low): 118.2 x10_2/uL | KIDNEY_L (1 mg/kg, 24 h, dose level Low): 1 g | KIDNEY_R (1 mg/kg, 24 h, dose level Low): 1 g | KIDNEY_TOTAL (1 mg/kg, 24 h, dose level Low): 1.9 g | LIVER (1 mg/kg, 24 h, dose level Low): 10.2 g | A/G (1 mg/kg, 24 h, dose level Low): 2.2 | ALP (1 mg/kg, 24 h, dose level Low): 1141.2 IU/L | ALT (1 mg/kg, 24 h, dose level Low): 41.2 IU/L | AST (1 mg/kg, 24 h, dose level Low): 71 IU/L | BUN (1 mg/kg, 24 h, dose level Low): 16.6 mg/dL | CRE (1 mg/kg, 24 h, dose level Low): 0.5 mg/dL | Ca (1 mg/kg, 24 h, dose level Low): 10.3 mg/dL | Cl (1 mg/kg, 24 h, dose level Low): 105.2 meq/L | DBIL (1 mg/kg, 24 h, dose level Low): 0.016 mg/dL | GLC (1 mg/kg, 24 h, dose level Low): 202.6 mg/dL | IP (1 mg/kg, 24 h, dose level Low): 8.6 mg/dL | K (1 mg/kg, 24 h, dose level Low): 5.1 meq/L | LDH (1 mg/kg, 24 h, dose level Low): 85 IU/L | Na (1 mg/kg, 24 h, dose level Low): 138.4 meq/L | PL (1 mg/kg, 24 h, dose level Low): 152.8 mg/dL | RALB (1 mg/kg, 24 h, dose level Low): 3.9 g/dL | TBIL (1 mg/kg, 24 h, dose level Low): 0.3 mg/dL | TC (1 mg/kg, 24 h, dose level Low): 88.4 mg/dL | TG (1 mg/kg, 24 h, dose level Low): 72 mg/dL | TP (1 mg/kg, 24 h, dose level Low): 5.7 g/dL | gamma-GTP (1 mg/kg, 24 h, dose level Low): 1 IU/L | TERMINAL_BW [1]: 195.5 g | APTT [1]: 17 s | Bas [1]: 0% | Eos [1]: 0.8% | Fbg [1]: 215 mg/dL | Hb [1]: 13.5 g/dL | Ht [1]: 40.3% | Lym [1]: 80.2% | MCH [1]: 22.2 pg | MCHC [1]: 33.5% | MCV [1]: 66.2 fL | Mono [1]: 8% | Neu [1]: 11.4% | PT [1]: 12.6 s | Plat [1]: 109.7 x10_4/uL | RBC [1]: 609.4 x10_4/ul | Ret [1]: 10.3% | WBC [1]: 99.3 x10_2/uL | KIDNEY_L [1]: 0.9 g | KIDNEY_R [1]: 0.9 g | KIDNEY_TOTAL [1]: 1.8 g | LIVER [1]: 8.7 g | A/G [1]: 1.6 | ALP [1]: 1158.6 IU/L | ALT [1]: 39.8 IU/L | AST [1]: 74.4 IU/L | BUN [1]: 10.6 mg/dL | CRE [1]: 0.4 mg/dL | Ca [1]: 10.3 mg/dL | Cl [1]: 105.8 meq/L | DBIL [1]: 0.056 mg/dL | GLC [1]: 185.2 mg/dL | IP [1]: 10 mg/dL | K [1]: 4.8 meq/L | LDH [1]: 99.4 IU/L | Na [1]: 137.4 meq/L | PL [1]: 125 mg/dL | RALB [1]: 3.7 g/dL | TBIL [1]: 0.4 mg/dL | TC [1]: 72.2 mg/dL | TG [1]: 40 mg/dL | TP [1]: 6 g/dL | gamma-GTP [1]: 1.2 IU/L | TERMINAL_BW [2]: 199.6 g | APTT [2]: 17 s | Bas [2]: 0% | Eos [2]: 0.8% | Fbg [2]: 206.8 mg/dL | Hb [2]: 13.3 g/dL | Ht [2]: 40.2% | Lym [2]: 81.2% | MCH [2]: 21.6 pg | MCHC [2]: 33.2% | MCV [2]: 65.1 fL | Mono [2]: 6.4% | Neu [2]: 12% | PT [2]: 12.5 s | Plat [2]: 106.7 x10_4/uL | RBC [2]: 617.8 x10_4/ul | Ret [2]: 9.6% | WBC [2]: 84.6 x10_2/uL | KIDNEY_L [2]: 0.9 g | KIDNEY_R [2]: 0.9 g | KIDNEY_TOTAL [2]: 1.8 g | LIVER [2]: 8.6 g | A/G [2]: 1.8 | ALP [2]: 959 IU/L | ALT [2]: 36.8 IU/L | AST [2]: 75 IU/L | BUN [2]: 10.6 mg/dL | CRE [2]: 0.5 mg/dL | Ca [2]: 10.1 mg/dL | Cl [2]: 107 meq/L | DBIL [2]: 0.036 mg/dL | GLC [2]: 188.4 mg/dL | IP [2]: 9.1 mg/dL | K [2]: 4.9 meq/L | LDH [2]: 91.4 IU/L | Na [2]: 137.4 meq/L | PL [2]: 120.8 mg/dL | RALB [2]: 3.8 g/dL | TBIL [2]: 0.3 mg/dL | TC [2]: 73.4 mg/dL | TG [2]: 38.6 mg/dL | TP [2]: 5.9 g/dL | gamma-GTP [2]: 2.2 IU/L | TERMINAL_BW [3]: 198.4 g | APTT [3]: 16.6 s | Bas [3]: 0% | Eos [3]: 0.6% | Fbg [3]: 210 mg/dL | Hb [3]: 13.1 g/dL | Ht [3]: 39.8% | Lym [3]: 79.6% | MCH [3]: 21.8 pg | MCHC [3]: 33% | MCV [3]: 66.1 fL | Mono [3]: 8.2% | Neu [3]: 11.8% | PT [3]: 12.4 s | Plat [3]: 108.3 x10_4/uL | RBC [3]: 602.2 x10_4/ul | Ret [3]: 9.7%
